{"source": "patent US20070105810A1", "about": "“THERAPEUTICS” (priority 2003, published 2007)", "key": {"[1]": {"tested_on": "transfer experimental autoimmune encephalomyelitis (EAE) in Lewis rats", "assay": "Transfer experimental autoimmune encephalomyelitis (EAE)", "format": "in vivo, Lewis rat", "conditions": "50 μmol/100 g body weight i.p. twice per day; day 3.5 to day 6", "from_the_text": "Transfer of MBP-specific CD4-positive T cells was used at day 0 to induce experimental autoimmune encephalomyelitis (EAE) in Lewis rats. Animals injected with PBS (vehicle) or nicotinic acid (control compound with structural similarities to BZ52) developed severe paralysis of tail and rear legs due to the inflammation. Clinical symptoms started day 3.5 and reached their maxima day 4 to 6 (or 6.5). Between day 3.5 and day 6, no difference between PBS and nicotinic acid was observed, whereas a beneficial effect of BZ52 was visible (FIG. 14).\nAnimals (6 per group, body weight approx. 150 g) were injected i.p. twice per day with either PBS (vehicle control), nicotinic acid (50 μmol/100 g body weight), or BZ 52 (50 μmol/100 g body weight). Clinical scores indicate the degree of paralysis of tail and legs. Data are presented as mean±SD from one representative experiment (n=6).\nAnimals (6 per group, body weight approx. 150 g) were injected i.p. twice per day with either PBS (vehicle control), nicotinic acid (50 μmol/100 g body weight), or BZ 52 (50 μmol/100 g body weight). […] Data are presented as mean±SD from one representative experiment (n=6).\n5×10^6 activated MBP specific-GFP Tcells were transferred i.v. into recipient Lewis rats. Clinical EAE was graded in five scores: 0.5, loss of tail tonus; 1, tail paralysis; 2, gait disturbance; 3, hind limb paralysis; 4, tetraparesis; 5, death.\nAnimals' weight was measured twice a day.\nIn order to analyze the effect of BZ194 on encephalitogenic T cells during the effector phase of EAE we used retrovirally transduced MBP-specific T cells expressing the marker gene green fluorescent protein (TMBP-GFP cells).\nAnimals were treated for 5 d intraperitoneally with 500 μmol BZ194 or vehicle (DMSO)."}, "[2]": {"tested_on": "NAADP binding site", "assay": "[32P]NAADP binding to sea urchin egg homogenate", "protocol": "[^32P]NAADP binding to 0.5% sea urchin egg homogenate.\nCompetitive CMA008 (1-Carbamoylmethyl-3-carboxy-pyridinium iodide) displacement of [^32P]NAADP (0.2 nM). Samples diluted in GluIM (intracellular medium), pre-incubated with indicated concentration of CMA008 for 10 minutes, then 0.2 nM [^32P]NAADP added and incubated at room temperature for a further 15 mins. Samples filtered through Whatman GF/B filters to separate bound and free [^32P]NAADP ligand. Non specific binding is defined by incubation of the homogenate in the presence of 10 μM NAADP. n=2. Data expressed as a fraction of total binding.\n2.5% sea urchin egg homogenate was diluted into GluIM pre-incubated with indicated concentration of CMA008 for 10 minutes at room temperature (A=100 nM, B=1 nM, C=10 μM). Subsequently, [^32P]NAADP was added and samples incubated for a further 15 minutes at room temperature. Samples were filtered through Whatman GF/B filters to separate bound and free [^32P]NAADP ligand."}, "[3]": {"tested_on": "calcium mobilization by IP3", "assay": "Calcium mobilization by IP3 in sea urchin egg homogenate", "format": "biochemical", "protocol": "(§1) Samples diluted to 2.5% in GluIM in the presence of regenerating system and kept at 17° C. with agitation for 3 hours to facilitate calcium uptake into stores. Calcium release was determined by measuring increase in Fluo-3 fluorescence at 526 nm. Data expressed as % of 250 nM NAADP calcium release in the absence of CMA008 (1-Carbamoylmethyl-3-carboxy-pyridinium iodide). […] CMA008 has no effect on the total calcium mobilization by IP3 or cADPR (insert) indicating the selectivity of this compound on the NAADP-sensitive release mechanism.\n(§2) • Subcellular fractions: calcium concentrations are measured with fluo-3 (3 μM) at physiological temperatures, using cell homogenates or subcellular fractions in a fluorimeter (Perkin-Elmer LS-50B) at 506 nm excitation and 526 nm emission. • Intact cells: Injected or hydrolysed ester derivatives of calcium sensitive dye are imaged in intact cells by laser-scanning confocal microscopy (TCS NT, Leica) Images were processed with the software NIH Image to create a self-ratio by dividing each image (F) by an image acquired before stimulation (Fo). [drawing 13] wherein R1, R2 and R3 are as defined herein. I Preparation of Nicotinic Acid Derivatives [drawing 14]"}, "[4]": {"tested_on": "pancreatic acinar cells", "assay": "CCK-induced oscillations of Ca2+ in pancreatic acinar cells", "format": "cell-based, mouse", "conditions": "for CCK-evoked calcium spiking/oscillations: external application, 1 mM, pre- and post-applied with respect to CCK (5 pM)", "protocol": "Pancreatic acinar cells were seeded onto poly-lysine-coated number 1 glass coverslips and loaded by incubating cells with 1-5 μM fura-2 acetoxymethylester (Molecular Probes; Leiden, Holland) for 60 min at room temperature. After the loading period, cells were subsequently washed and maintained in buffer at room temperature and used immediately. Cells were excited alternately with 340 and 380 nm light (emission 510 nm), and ratio image of clusters were recorded every 4-5 s, using a 12-bit CCD camera (MicroMax; Princeton Instruments, NJ). All experiment were conducted at room temperature. CMA008 (1-Carbamoylmethyl-3-carboxy-pyridinium iodide) is dissolved in 50% DMSO. Final concentration of DMSO is 0.5% in the solution (composition in mM: 140 NaCl, 4.7 KCl, 1 CaCl2, 1.13 MgCl2, 10 HEPES, 10 Glucose, pH adjusted to 7.2)\nPancreatic acinar cells were isolated from mice and dispersed by collagenase treatment. Cells were incubated with fura-2 AM for 30 min and washed before being imaged on a Metafluor system. The cells were alternately excited at 340/380 nm and emitted light collected at around 510 nm. The ratio of the intensities of emitted light at the two excitation wavelengths were calculated, converted to free calcium concentrations, and plotted again time.\nPancreatic acinar cells were seeded onto poly-lysine-coated number 1 glass coverslips and loaded with calcium indicator by incubating cells with […] fura-2 acetoxymethylester (Molecular Probes; Leiden, Holland) for 60 min at room temperature. After the loading period, cells were subsequently washed and maintained in buffer at room temperature and used immediately. Cells were excited alternately with 340 and 380 nm light (emission 510 nm), and ratio image of clusters 5 were recorded every 4-5 s, using a 12-bit CCD camera (MicroMax; Princeton Instruments, NJ).\nAll experiments were conducted at room temperature. CMA008 (1-Carbamoylmethyl-3-carboxy-pyridinium iodide) was dissolved in 50% DMSO. Final concentration of DMSO was 0.5% in the solution (composition in mM: 140 NaCl, 4.7 KCl, 1 CaCl2, 1.13 MgCl2, 10 HEPES, 10 Glucose, pH adjusted to 7.2). The inhibition of CCK-evoked calcium spiking, both pre- and post-applied with respect to CCK (5 pM), was consistent with inhibition of NAADP-induced calcium release by CMA008 (1 mM). The biological data for these experiments is presented in FIG. 7 (see also the description of the figures above)."}, "[5]": {"tested_on": "calcium mobilization by cADPR", "assay": "Calcium mobilization by cADPR in sea urchin egg homogenate", "format": "biochemical", "protocol": "as §1, §2"}, "[6]": {"tested_on": "NAADP-sensitive release mechanism", "assay": "NAADP-mediated calcium release in sea urchin egg homogenate (Fluo-3)", "format": "biochemical", "conditions": "250 nM NAADP, 2.5% homogenate, read-out: IC50, inhibition of NAADP calcium mobilization", "protocol": "as §1, §2"}, "[7]": {"tested_on": "NAADP-induced calcium release in intact sea urchin eggs", "assay": "Calcium release on photolysis of caged NAADP in intact sea urchin eggs", "format": "cell-based, Lytechinus pictus", "from_the_text": "Sea urchin eggs were microinjected with a solution containing the calcium reporter dye, calcium green dextran, together with caged NAADP. Fluorescence was then imaged on a Leica confocal microscope using an excitation wavelength of 488 nm. In the control egg [see FIG. 6 A] a brief UV flash photolysed a proportion of the caged NAADP and evoked a large calcium transient.\nSea urchin eggs of Lytechinus pictus were obtained by intracoelomic injection of 0.5 M KCl shed into artificial sea water (in mM, NaCl 435, MgCl2 40, MgSO4 15, CaCl2 11, KCl 10, NaHCO3 2.5, EDTA 1), dejellied by passing through […] nylon mesh, and then washed twice by centrifugation. Eggs were transferred to polylysine-coated glass coverslips for microinjection and microscopy. Oregon Green 488 BAPTA (1,2-bis(2-aminophenoxy)ethane-N,N,N9,N9-tetraacetic acid dextran; Molecular Probes) was pressure-microinjected (Picospritzer; World Precision Instruments). The calcium-sensitive dye was imaged by laser-scanning confocal microscopy (Leica model TCS NT) using the 488-nm line of an argon ion laser for excitation, and the emission was long passfiltered (515 nm) and detected with a photomultiplier tube. Caged NAADP (^29P-(1-(2-nitrophenyl)ethyl) NAADP; Molecular Probes) was purified further by high performance liquid chromatography to remove small amounts of contaminating free NAADP. […]"}}, "note": "Entries after “also recorded” stand apart in the source; their conditions may differ. Structures can show the parent of a compound that is named as a salt.", "data": [{"compound": "CCN(CC)C(=O)C[n+]1cccc(C(=O)OC)c1", "note": "(as salt: iodide)", "values": [{"measurement": "melting point", "result": "163 to 165", "unit": "°C"}]}, {"compound": "O=C(O)c1ccc[n+](Cc2ccccc2)c1", "note": "(as salt: bromide)", "values": [{"measurement": "melting point", "result": "203 to 205", "unit": "°C"}]}, {"compound": "NC(=O)CC[n+]1cccc(C(=O)O)c1", "note": "(as salt: iodide) [Example 11, 1-(2-Carbamoyl-ethyl)-3-carboxy-pyridinium; iodide]", "values": [{"measurement": "melting point", "result": "170 to 173", "unit": "°C"}]}, {"compound": "COC(=O)c1ccc[n+](CCCC#N)c1", "note": "(as salt: iodide)", "values": [{"measurement": "melting point", "result": "167 to 170", "unit": "°C"}]}, {"compound": "CCN(CC)C(=O)C[n+]1cccc(C(=O)O)c1", "note": "(as salt: iodide) [Example 10, 3-Carboxy-1-diethylcarbamoylmethyl-pyridinium; iodide]", "values": [{"measurement": "melting point", "result": "97 to 100", "unit": "°C"}]}, {"compound": "COC(=O)c1ccc[n+](CCC(N)=O)c1", "note": "(as salt: iodide)", "values": [{"measurement": "melting point", "result": "98 to 100", "unit": "°C"}]}, {"compound": "CCN(CC)CC[n+]1cccc(C(=O)OC)c1", "note": "(as salt: iodide)", "values": [{"measurement": "melting point", "result": "172 to 174", "unit": "°C"}]}, {"compound": "O=C(O)c1cccnc1", "note": "[nicotinic acid, reference compound]", "values": [{"measurement": "clinical symptoms (clinical score) vs PBS", "setting": "[1]", "result": "no difference"}, {"measurement": "effect on [32P]NAADP binding to egg membranes", "setting": "[2]; up to 1 mM, 0.2 nM [32P]NAADP, 0.5% homogenate", "result": "without effect"}]}, {"compound": "CCC[n+]1cccc(C(=O)O)c1", "note": "(as salt: iodide)", "values": [{"measurement": "melting point", "result": "162 to 165", "unit": "°C"}]}, {"compound": "NC(=O)C[n+]1cccc(C(=O)O)c1", "note": "[CMA008, 1-Carbamoylmethyl-3-carboxy-pyridinium iodide]", "values": [{"measurement": "effect on total calcium mobilization by IP3", "setting": "[3]", "result": "no effect"}, {"measurement": "CCK-evoked calcium spiking", "setting": "[4]; CMA008 1 mM added post-CCK (5 pM)", "result": "inhibition"}, {"measurement": "resting calcium levels", "setting": "[4]; CMA008 1 mM added pre-CCK", "result": "no apparent effect"}, {"measurement": "response to CCK", "setting": "[4]; CMA008 1 mM added pre-CCK (5 pM)", "result": "a much smaller response to CCK was seen, with a greatly reduced frequency"}, {"measurement": "CCK-evoked calcium spiking/oscillations", "setting": "[4]", "result": "inhibition"}, {"measurement": "CCK-evoked calcium spiking/oscillations", "setting": "[4]; listed as CM008", "result": "inhibited or reduced"}, {"measurement": "effect on total calcium mobilization by cADPR", "setting": "[5]", "result": "no effect"}, {"measurement": "IC50", "setting": "[6]", "result": 15.1, "unit": "µM"}, {"measurement": "effect on the Bmax", "setting": "[2]; 1 nM and 100 nM CMA008", "result": "no effect"}, {"measurement": "Bmax (total specific binding of [32P]NAADP)", "setting": "[2]; in the presence of 10 μM CMA008, 2.5% homogenate, 68.65%±2.7 in its absence", "result": "46.28%±2.61"}, {"measurement": "calcium release on photolysis of caged NAADP", "setting": "[7]; CMA008 10 mM applied externally in sea water, NPE-NAADP 1 μM", "result": "blocks; also recorded: failed to induce"}, {"measurement": "cell membrane permeation", "setting": "[7]; inferred from activity of compound applied outside the cell", "result": "permeates the cell membrane"}]}]}
